This note sets out measurements from article PMC10846744, “Cathelicidin peptide analogues inhibit EV71 infection through blocking viral entry and uncoating” (PLOS Pathogens, 2024).

Structures are written as SMILES.

Data set [1] concerns EV71 virus. The data set is described as follows: EV71 infection inhibition on RD cells (VP1 immunoblot, viral titer, cell viability/CPE). In kind it is cell-based, enterovirus 71 (EV71). As to conditions: RD cells; for inhibition of EV71 infection at 0.3, 0.9, or 1.5 μM / inhibition of EV71 infection at higher concentration: cell viability or viral titer 24 h.p.i; for inhibition of EV71 infection at 0.3, 0.9, or 1.5 μM: 0.3, 0.9, or 1.5 μM peptide; for inhibition of EV71 infection at higher concentration: much higher concentration than 1.5 μM. How it is done: Synthetic peptides were purchased from Bioyears Co. Ltd. (Wuhan, China) with purity of more than 95% and dissolved in PBS. To test their inhibitory effects, the EV71 virus (MOI = 1) was incubated with the indicated amount of peptide at room temperature for 1 hr before the mixture was added to RD cells and maintained throughout the experiment. Cell viability, viral titer, or viral protein expression was determined 24 h.p.i. For the time-of-addition experiment, viruses were either pre-incubated with peptides (for the -2 and -1 time points), the mixture was added to the cells simultaneously (for 0 time point), or peptides were added after virus infection (for 1, 2, 4 and 7 h time points) and the virus/peptide was maintained in the culture before cell viability, viral titer, or viral protein expression was determined 24 h.p.i. The TCID50 of the virus was calculated according to the Reed-Muench method.
Cells were treated as described and harvested with LDS sample buffer (Thermo Fisher Scientific). After denaturation, samples were separated on 10% SDS-PAGE gel and then transferred to a polyvinylidene fluoride (PVDF) membrane. The proteins were blocked using 5% skimmed milk and probed with the corresponding antibodies. The following antibodies were used in this study: EV71 VP1 polyclonal antibody (GeneTex, Taiwan, China), β-Actin antibody (Zen BioScience, Chengdu, China), pan-Enterovirus Monoclonal antibody (Thermo Fisher Scientific). The chemiluminescence signals were visualized using ECL Advance reagents (Mishubio, China), and the images were acquired using the FUSION Solo S Imaging System (VILBER, France).
(§1) Cell viability assays were carried out using the Cell Titer-Glo Luminescent Cell Viability Assay Kit (Promega, Madison, WI) following the manufacturer’s instructions. Luminescence signals were measured using a BioTek Neo2 microplate reader.
For crystal violet staining, cells treated as indicated were first washed once with PBS, followed by fixation with 4% PFA. Cells were then stained with 0.5% crystal violet for 2 hrs before they were extensively washed with water.
On the technique in general: Immunoblotting shows a protein as a band on a membrane.

A further data set concerns RD cells. Nature of the data set: Cytotoxicity of peptides on RD cells (Cell Titer-Glo). Format: cell-based, human. The note with it: cell viability plotted against peptide concentration, Cell Titer-Glo (S1A-S1D Fig). How it is done: To test whether Cathelicidin peptide (LL-37) and its analogues could inhibit enterovirus infection, we conducted viral infection inhibition test on RD cells, which are one of the most commonly used cells for enterovirus propagation. We first assessed the cytotoxicity of LL-37, LL-18, FF-18, and a short form of LL-37 (DL-37) (Fig 1A), and all the peptides tested have a CC50 over 50 μM (S1A–S1D Fig). We then chose lower concentrations to test their antiviral activity. […] In addition, EV71 infection could cause cytopathic effect (CPE) on RD cells, and peptide could rescue EV71-induced cell death as assayed by crystal violet staining (Fig 1E) or cellular ATP content measurement (Fig 1F).
as §1
(A-D) Cell viability of RD cells treated with the indicated amount of DL-37 (A), LL-37 (B), LL-18 (C), or FF-18 (D) was plotted against peptide concentration, and the cytotoxicity was determined. (E) EV71 virus pre-incubated with indicated amounts of DL-37, and the cell viability was determined 24 h.p.i. ***, P<0.001. (F-G) CVB5 (F) or Echo7 (G) virus pre-incubated with 0.3, 0.9, or 1.5 μM of peptides were used to infect RD cells. Cell viability was determined 24 h.p.i. ***, P<0.001. (H-I) CVB5 (H) or Echo7 (I) virus pre-incubated with 3, 6, or 12 μM of peptides were used to infect RD cells. Cell viability was determined 24 h.p.i. ***, P<0.001. (TIF) Click here for additional data file.
In general terms: In ATP-based viability assays light output follows the ATP content of the culture.

The test system of a further data set is CVB5 virus. The data set is described as follows: 1H NMR titration of peptide with CVB5 virus. The note with it: molar ratio peptide to virus 90:1, 800 MHz, 298k. Format: binding, coxsackievirus B5. As for the experimental part:
(§2) The NMR titrations were performed on a Bruker 800 MHz (Avance NEO) spectrometer equipped with cryo-probe. The molar ratio of the peptide to the virus was 90:1. The experiments were recorded using zgespg pulse for 128 scans at 298k and the results were analyzed by Topspin.

In data set [2] the test system is EV71 virus. The data set is described as follows: 1H NMR titration of peptide with EV71 virus. Format: binding, enterovirus 71 (EV71). As to conditions: molar ratio peptide to virus 90:1, 800 MHz, 298k. How it is done: as §2
The subject of another data set is EV71 virions. Nature of the data set: Viral particle stability thermal release assay (PaSTRY). As to conditions: EV71 MOI = 10 pre-incubated with LL-18 or NaCl, SYBR green II, heated 25°C to 80°C; PBS control around 45°C. Also noted: species or system enterovirus 71 (EV71). As for the experimental part: Fig 6 LL-18 stabilizes the viral particles by inhibiting uncoating. (A) EV71 virus (MOI = 10) was pre-incubated with PBS, indicated amount of LL-18 or NaCl for 1 hr and then mixed with SYBR green dyes II before they were heated to indicated temperatures. The fluorescent signals were measured and plotted against temperature. PBS was used as a negative control. (B) EV71 virus (MOI = 10) was pre-incubated with PBS, LL-18, or 12s for 2 hrs. Half of the samples were then treated with 1.5 μg SCARB2 protein and incubated at 37°C for 2 hrs at pH 5.5. Samples were then subjected to ultracentrifugation as detailed in materials and methods. The numbers above represent the fractions collected from top to bottom.
EV71 viruses were preincubated with either PBS, NaCl or the indicated amount of LL-18 at room temperature for 2 hrs, before Sybr green II dye (3× working concentration, Solarbio, China) and RNase inhibitor (1 U/μL, Thermo Scientific) were added. The mixture was heated from 25°C to 80°C with an increment of 0.5°C for 30 seconds, and the fluorescence from SYBR green was monitored with a QuantGene 9600 real-time PCR system (Bioer, China).

As for `CC[C@H](C)[C@H](NC(=O)[C@H](CCCCN)NC(=O)[C@H](CCC(=O)O)NC(=O)[C@H](CCCCN)NC(=O)[C@H](CO)NC(=O)[C@H](CCCCN)NC(=O)[C@H](CCCNC(=N)N)NC(=O)[C@@H](N)Cc1ccccc1)C(=O)NCC(=O)N[C@@H](CCCCN)C(=O)N[C@@H](CCC(=O)O)C(=O)N[C@@H](Cc1ccccc1)C(=O)N[C@@H](CCCCN)C(=O)N[C@@H](CCCNC(=N)N)C(=O)N[C@H](C(=O)N[C@H](C(=O)N[C@@H](CCC(N)=O)C(=O)N[C@@H](CCCNC(=N)N)C(=O)N[C@H](C(=O)N[C@@H](CCCCN)C(=O)N[C@@H](CC(=O)O)C(=O)N[C@@H](Cc1ccccc1)C(=O)N[C@@H](CC(C)C)C(=O)N[C@@H](CCCNC(=N)N)C(=O)N[C@@H](CC(N)=O)C(=O)N[C@@H](CC(C)C)C(=O)N[C@H](C(=O)O)C(C)C)[C@@H](C)CC)C(C)C)[C@@H](C)CC` (racemic) [DL-37], in the data set with EV71 virus [1], the “inhibition of EV71 infection at 0.3, 0.9, or 1.5 μM” value was “could not inhibit EV71 infection” and the “inhibition of EV71 infection at higher concentration” value is listed as “only showed inhibition at a much higher concentration”. The “inhibition of EV71 infection (overall conclusion)” value in the data set on EV71 virus [1] (VP1 expression, viral titer, crystal violet and Cell Titer Glo 24 h.p.i) is recorded as “little antiviral activity”. Besides, the CC50 result in the data set with RD cells is recorded as “over 50 μM”.

With `CC[C@H](C)[C@H](NC(=O)[C@H](CCCCN)NC(=O)[C@H](CCC(=O)O)NC(=O)[C@H](CCCCN)NC(=O)[C@H](CO)NC(=O)[C@H](CCCCN)NC(=O)[C@H](CCCNC(=N)N)NC(=O)[C@H](Cc1ccccc1)NC(=O)[C@H](Cc1ccccc1)NC(=O)[C@H](CC(=O)O)NC(=O)CNC(=O)[C@H](CC(C)C)NC(=O)[C@@H](N)CC(C)C)C(=O)NCC(=O)N[C@@H](CCCCN)C(=O)N[C@@H](CCC(=O)O)C(=O)N[C@@H](Cc1ccccc1)C(=O)N[C@@H](CCCCN)C(=O)N[C@@H](CCCNC(=N)N)C(=O)N[C@H](C(=O)N[C@H](C(=O)N[C@@H](CCC(N)=O)C(=O)N[C@@H](CCCNC(=N)N)C(=O)N[C@H](C(=O)N[C@@H](CCCCN)C(=O)N[C@@H](CC(=O)O)C(=O)N[C@@H](Cc1ccccc1)C(=O)N[C@@H](CC(C)C)C(=O)N[C@@H](CCCNC(=N)N)C(=O)N[C@@H](CC(N)=O)C(=O)N[C@@H](CC(C)C)C(=O)N[C@H](C(=O)N1CCC[C@H]1C(=O)N[C@@H](CCCNC(=N)N)C(=O)N[C@H](C(=O)N[C@@H](CCC(=O)O)C(=O)N[C@@H](CO)C(=O)O)[C@@H](C)O)C(C)C)[C@@H](C)CC)C(C)C)[C@@H](C)CC` [LL-37, reference compound], in the data set with EV71 virus [1], the “inhibition of EV71 infection at 0.3, 0.9, or 1.5 μM” value was “could not inhibit EV71 infection” and the “inhibition of EV71 infection at higher concentration” value is recorded as “only showed inhibition at a much higher concentration”. Moreover, the CC50 entry in the data set on RD cells is reported as “over 50 μM”. Further, the “interaction of peptide with CVB5 virus by 1H 1D NMR (amide region)” value in the data set with CVB5 virus is “no interaction between the peptide and viruses”. The “interaction of peptide with EV71 virus by 1H 1D NMR (amide region)” value in the data set with EV71 virus [2] is “no interaction between the peptide and viruses”.

With `[Cl-].[Na+]` [NaCl, reference compound], in the data set with EV71 virions, the “temperature of peak SYBR green fluorescence intensity (RNA release)” value was found to be 55 °C.
